Test results as given in paper PMC4760439, “Glicentin‐related pancreatic polypeptide inhibits glucose‐stimulated insulin secretion from the isolated pancreas of adult male rats” (Physiological Reports, 2015).
“Also recorded” adds a separate entry of the source.

How the values were obtained:
canine pancreas = settings: cited from earlier work
Excerpt: However, we know of only one study reporting the effects of GRPP on GSIS. […] The precise experimental conditions such as amount of glucose and experimental model used may have influences on the different outcomes; however, the reason for the opposing actions of GRPP between these ...

perfused rat liver = assay: Isolated perfused rat liver: glucose output, lactate output, portal pressure; set-up: species or system Male Sprague‐Dawley rat; settings: for Lactate output (effect of peptide vs control) / Portal pressure (effect of peptide vs control) / Glucose output, epinephrine‐stimulated (effect of peptide vs control): 2.3 or 230 pmol g^−1 min^−1 (n = 5 and n = 3), epinephrine 100 pmol g^−1 min^−1, 30–60 min; for Glucose output, epinephrine‐stimulated (effect of peptide vs control): 37°C
Procedure: (§1) All studies were performed under approval of the University of Auckland Animal Ethics Committee and were consistent with the ARRIVE guidelines (Kilkenny et al. 2012). Male Sprague‐Dawley rats (220–300 g) were obtained from a breeding colony in the Integrated Physiology Unit, School of Biological Sciences at the University of Auckland. Animals were housed in standard environmental conditions under a 12‐hour light/dark cycle and a temperature of 20 ± 1°C. They were maintained on Teklad TB 2018 (Harlan, UK) rat chow and tap water ad libitum.
Under general anesthesia (isoflurane 2–5%; 2 L min^−1 O2 via nasal cone), nonfasted rats underwent laparotomy between 8:00 and 9:00 AM on the experimental day. The liver was removed and quickly connected to a custom‐made, temperature‐controlled, organ perfusion system, whereby it was perfused (in nonrecirculating mode) in a manner similar to that reported previously (Englisch et al. 2000; Whiting et al. 2013). Livers were perfused at a rate of 2 mL g^−1 min^−1 with perfusion media containing final concentrations (in mmol L^−1): NaCl, 128; NaHCO3, 23.9; KCl, 6.0; CaCl2, 2.4; MgSO4, 1.18; D‐glucose, 5; 3‐(‐N‐morpholino)propane sulfonate, 1.29; with fatty‐acid‐free BSA, 0.5% (w/v) at pH 7.4 gassed with O2:CO2 95:5% (v/v) at 37°C. Each liver was stabilized for 40 min: thereafter, hormone‐containing solutions or vehicle (buffer only) was delivered via a side‐arm infusion. Hormones were also investigated with regard to their ability to attenuate epinephrine‐stimulated hepatic glucose output (Epinephrine, Sigma‐Aldrich, St. Louis, MO). Epinephrine was added 30 min after the addition of hormones was commenced.
(§2) Measurement of organ perfusion parameters
(§3) Glucose and lactate concentrations were measured in both organ preparations using a YSI2300 Stat glucose and lactate analyzer (Yellow Springs, Ohio). Portal pressure was measured in isolated‐perfused liver preparations in mmH2O via a T‐tube located 10 cm upstream from the preparation.
(§4) Maximum pancreatic first‐phase insulin secretion in the presence of hormone infusion was contrasted with corresponding control values by unpaired Welch's t‐tests for preplanned comparisons, to allow for unequal variance between groups. Linear mixed‐effects models were fitted by restricted maximum likelihood (LME‐REML) to data obtained from each indicated phase of isolated perfused–organs studies, using S‐PLUS version 8.2 (TIBCO, Spotfire). Calculated P‐values <0.05 are presented in the article and reflect the likelihood ratio between two models, the effect in question (treatment, time, or treatment:time) against the model without the effect in question. Insulin secreted from isolated islets was expressed as a percentage of insulin content and compared using one‐way ANOVA (GraphPad Prism version 6.0: GraphPad Software Inc., San Diego, CA). Cyclic AMP data have been normalized to the response obtained to forskolin and fitted to obtain concentration–response curves using a three‐parameter logistic equation (GraphPad Prism version 6.0: GraphPad Software Inc., San Diego, CA): pEC50 values were obtained from the concentration–response curves and compared using one‐way ANOVA. All data are presented as mean ± SEM of three to four independent experiments.
Figure 2 Effect of rGRPP and rGRPP‐LP on glucose output, lactate output, and portal pressure in the isolated perfused rat liver. Livers from Sprague‐Dawley rats were isolated and perfused with rGRPP (left panels: 2.3 or 230 pmol g^−1 min^−1, n = 5 and n = 3, respectively), rGRPP‐LP (right panels: 2.3 or 230 pmol g^−1 min^−1, n = 5 and n = 3), or vehicle (all panels: control, n = 5). Livers were perfused with hormones or vehicle from 0 to 60 min with 0–30 min as the basal period.

[1] = tested on: isolated perfused rat pancreas; assay: Isolated perfused rat pancreas: insulin secretion (GSIS), lactate; set-up: species or system Male Sprague‐Dawley rat; settings: for Insulin secretion at 5 mmol L^−1 glucose (vs control): first 20 min; for Insulin secretion at 5 mmol L^−1 glucose (vs control) / Glucose‐stimulated insulin secretion (GSIS) at 20 mmol L^−1 glucose (vs control): rGRPP and rGRPP‐LP 3 or 30 pmol min^−1, hGLP‐1 7–36 30 pmol min^−1, n = 5/group, insulin by ELISA, 37°C; for Glucose‐stimulated insulin secretion (GSIS) at 20 mmol L^−1 glucose (vs control): 20–40 min; for Glucose‐stimulated insulin secretion (GSIS) at 20 mmol L^−1 glucose (vs control) / First phase of GSIS (vs control) / Second phase of GSIS (vs control): 20 mmol L^−1 glucose; for First phase of GSIS (vs control): t = 22 min; for Second phase of GSIS (vs control): t = 26 min to t = 40
Procedure: as §1
Isolated pancreas perfusion
General aspects of the preparation for the isolated pancreas perfusions were the same as those for the liver perfusion studies (above). Particular aspects of the preparation for the pancreas perfusion studies were as follows. After laparotomy, the pancreas and duodenum were removed en bloc and perfused (in nonrecirculating mode) consistent with our previous report (Buchanan et al. 2001). Each pancreatic preparation was quickly connected to the custom‐made, temperature‐controlled, organ perfusion system and perfused at 3 mL min^−1 with oxygenated perfusion buffer (containing at final concentrations in mmol L^−1): NaCl, 112; NaHCO3, 29.3; KCl, 4.4; CaCl2, 2.4; MgSO4, 1.2; D‐glucose, 5.0; with BSA, 0.5% (w/v), Dextran 4% (w/v) at pH 7.4 gassed with O2:CO2 95:5% (v/v) at 37°C. […] Each pancreas was stabilized for 30 min before hormones or vehicle (buffer only) was delivered via a side‐arm infusion.
as §2, §3, §4
Figure 3 Effects of proglucagon products on insulin secretion in the isolated‐perfused rat pancreas.

[2] = molecular target: T1, human glucagon receptor (hGL‐R) (Homo sapiens, UniProt P47871); assay: cAMP stimulation in transfected Cos 7 cells, hGL‐R; type: cell-based; settings: Cos 7, 37°C, 10 min, ALPHA‐screen
T1 construct: expressed in transfected cells; host or cells: Cos 7 cells
Procedure: (§5) Transfection of Cos 7 cells
(§6) Cos 7 cells were maintained and subcultured as previously described (Bailey and Hay 2006) and plated at a density of 15,000 cells per well into 96‐well plates 1 day prior to transfection. […] Cyclic AMP assays were performed 48 h after transfection (Bailey and Hay 2006). The human GRPP was obtained from Bachem (Bubendorf, Switzerland).
(§7) Cyclic AMP stimulation of transfected Cos 7 cells
(§8) Transfected cells were serum‐deprived in DMEM containing 1 mmol L^−1 IBMX and 0.1% (w/v) bovine serum albumin (BSA) for 30 min. […] Plates were incubated at 37°C for 10 min. […] Media were then aspirated from the wells and reactions terminated by addition of ice‐cold absolute ethanol. Ethanol was then evaporated to dryness and cell extracts re‐suspended in 45 μL cAMP assay buffer: cAMP concentrations were determined using ALPHA‐screen assay kits (Perkin Elmer, Massachusetts) as previously described (Gingell et al. 2010).
as §4, with “Cyclic AMP data have been normalized to the response obtained to forskolin and fitted to obtain concentration–response curves using a three‐parameter logistic equation (GraphPad Prism version 6.0: GraphPad Software Inc., San Diego, CA): pEC50 values were obtained from the concentration–response curves and compared using one‐way ANOVA. All data are presented as mean ± SEM of three to four independent experiments.” left out

[3] = molecular target: T2, human GLP‐1 receptor (hGLP‐1R) (Homo sapiens, UniProt P43220); assay: cAMP stimulation in transfected Cos 7 cells, hGLP‐1R; type: cell-based; settings: Cos 7, 37°C, 10 min, ALPHA‐screen
T2 construct: expressed in transfected cells; host or cells: Cos 7 cells
Procedure: as §5, §6, §7, §8
(§9) Maximum pancreatic first‐phase insulin secretion in the presence of hormone infusion was contrasted with corresponding control values by unpaired Welch's t‐tests for preplanned comparisons, to allow for unequal variance between groups. […] Calculated P‐values <0.05 are presented in the article and reflect the likelihood ratio between two models, the effect in question (treatment, time, or treatment:time) against the model without the effect in question. […]

[4] = molecular target: T1, human glucagon receptor (hGL‐R); assay: Antagonism of glucagon‐stimulated cAMP production, hGL‐R; type: cell-based; settings: peptide preincubated 5 min
Procedure: as §5, §6, §7, §8, §9

[5] = molecular target: T2, human GLP‐1 receptor (hGLP‐1R); assay: Antagonism of GLP‐1 7–36‐stimulated cAMP production, hGLP‐1R; type: cell-based; settings: peptide preincubated 5 min
Procedure: as §5, §6, §7, §8, §9

[6] = 100 pmol g^−1 min^−1, 30–60 min, all groups

T2 sequence (P43220 24-463): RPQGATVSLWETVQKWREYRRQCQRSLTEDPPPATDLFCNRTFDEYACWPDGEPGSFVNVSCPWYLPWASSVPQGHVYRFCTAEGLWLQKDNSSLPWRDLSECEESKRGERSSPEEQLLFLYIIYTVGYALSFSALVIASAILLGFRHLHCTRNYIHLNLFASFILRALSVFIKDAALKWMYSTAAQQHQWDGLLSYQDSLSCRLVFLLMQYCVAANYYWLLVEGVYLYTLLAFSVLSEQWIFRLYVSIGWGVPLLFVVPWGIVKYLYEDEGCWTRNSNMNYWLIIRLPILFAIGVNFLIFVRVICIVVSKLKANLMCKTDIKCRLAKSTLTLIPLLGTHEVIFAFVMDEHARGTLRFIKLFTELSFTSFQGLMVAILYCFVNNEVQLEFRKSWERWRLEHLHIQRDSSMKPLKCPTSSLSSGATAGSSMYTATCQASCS
T1 sequence (P47871 26-477): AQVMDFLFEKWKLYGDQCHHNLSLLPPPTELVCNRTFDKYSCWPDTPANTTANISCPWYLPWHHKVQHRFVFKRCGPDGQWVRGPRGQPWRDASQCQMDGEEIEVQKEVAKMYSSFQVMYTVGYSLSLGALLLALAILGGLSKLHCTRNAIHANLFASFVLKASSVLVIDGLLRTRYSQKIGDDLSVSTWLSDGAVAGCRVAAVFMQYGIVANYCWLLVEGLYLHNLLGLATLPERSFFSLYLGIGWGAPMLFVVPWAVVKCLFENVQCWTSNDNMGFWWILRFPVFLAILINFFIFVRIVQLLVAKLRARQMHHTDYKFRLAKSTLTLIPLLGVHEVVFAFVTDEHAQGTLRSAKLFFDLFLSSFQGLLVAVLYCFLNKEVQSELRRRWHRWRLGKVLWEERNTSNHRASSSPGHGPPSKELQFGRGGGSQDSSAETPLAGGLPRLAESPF

Molecule	Lactate output (effect of peptide vs control) (perfused rat liver)	Portal pressure (effect of peptide vs control) (perfused rat liver)	Glucose output, epinephrine‐stimulated (effect of peptide vs control) (perfused rat liver)	Insulin secretion at 5 mmol L^−1 glucose (vs control) [1]	Glucose‐stimulated insulin secretion (GSIS) at 20 mmol L^−1 glucose (vs control) [1]	First phase of GSIS (vs control) [1]	Second phase of GSIS (vs control) [1]	Stimulation of cAMP production at hGL‐R [2]	Stimulation of cAMP production at hGLP‐1R [3]	Antagonism of glucagon‐stimulated cAMP production [4]	Antagonism of GLP‐1‐stimulated cAMP production [5]	also measured
porcine GRPP: porcine GRPP, literature peptide (RSLQNTEEKSRSFPAPQTDPLDDPDQMTED; Glicentin-related polypeptide; UniProt P01274 21-50, looked up)	–	–	–	–	–	–	–	–	–	–	–	Insulin and glucagon secretion, canine pancreas (canine pancreas; ref Ohneda and Ohneda 1988): insulin was possibly increased and glucagon decreased
human glicentin 1–16: human glicentin 1–16, literature peptide (RSLQDTEEKSRSFSAS; Glicentin; UniProt P01275 21-36, looked up, fragment)	–	–	–	–	–	–	–	–	–	–	–	Plasma insulin and glucagon, canine pancreas (canine pancreas; local circulation preparation of the canine pancreas, ref Ohneda and Ohneda 1988): slight increases in plasma insulin and decreases in plasma glucagon
human glicentin 12–69: encompasses both GRPP and glucagon sequences (SFSASQADPLSDPDQMNEDKRHSQGTFTSDYSKYLDSRRAQDFVQWLMNTKRNRNNIA; Glicentin; UniProt P01275 32-89, looked up, fragment)	–	–	–	–	–	–	–	–	–	–	–	GSIS and glucagon secretion, perfused canine pancreas (canine pancreas; ref Yanaihara et al. 1985): enhanced GSIS and inhibited glucagon secretion in the perfused canine pancreas
HAPQDTEENARSFPASQTEPLEDPNQINE [rGRPP‐LP, rat GRPP‐like peptide]	Neither dose of rGRPP nor rGRPP‐LP modified these parameters compared with control values	Neither dose of rGRPP nor rGRPP‐LP modified these parameters compared with control values	Neither dose of rGRPP nor rGRPP‐LP modified these parameters compared with control values	No significant difference in insulin secretion	potent inhibition of glucose‐stimulated insulin secretion (GSIS) from the rat pancreas; also recorded: inhibited GSIS	inhibited the initial first phase of GSIS in the isolated rat pancreas	ongoing suppression of insulin secretion throughout the second phase	neither rGRPP nor rGRPP‐LP stimulated cAMP production at either receptor	neither rGRPP nor rGRPP‐LP stimulated cAMP production at either receptor	nor did they antagonize glucagon‐ or GLP‐1‐stimulated cAMP‐production at either receptor	nor did they antagonize glucagon‐ or GLP‐1‐stimulated cAMP‐production at either receptor	Glucose output, epinephrine‐stimulated (effect of peptide vs control) (perfused rat liver; listed as GRPP‐LP): not modified by rGRPP or GRPP‐LP
CNC[C@H](O)c1ccc(O)c(O)c1 [epinephrine, reference compound]	–	–	–	–	–	–	–	–	–	–	–	Glucose output, effect of epinephrine (perfused rat liver; [6]): evoked an increase in glucose output in all groups; Lactate release, effect of epinephrine (perfused rat liver; [6]): expected elevation of lactate release; Portal pressure, effect of epinephrine (perfused rat liver; [6]): expected elevation of lactate release and portal pressure
HAPQDTEENARSFPASQTEPLEDPDQINED [rGRPP, rat glicentin‐related pancreatic polypeptide, 30 amino acid Gcg‐derived peptide, synthesized by Fmoc solid‐phase peptide synthesis]	Neither dose of rGRPP nor rGRPP‐LP modified these parameters compared with control values	Neither dose of rGRPP nor rGRPP‐LP modified these parameters compared with control values	not modified by rGRPP or GRPP‐LP; also recorded: Neither dose of rGRPP nor rGRPP‐LP modified these parameters compared with control values	No significant difference in insulin secretion	potent inhibition of glucose‐stimulated insulin secretion (GSIS) from the rat pancreas; also recorded: inhibited GSIS	inhibited the initial first phase of GSIS in the isolated rat pancreas	ongoing suppression of insulin secretion throughout the second phase	neither rGRPP nor rGRPP‐LP stimulated cAMP production at either receptor	neither rGRPP nor rGRPP‐LP stimulated cAMP production at either receptor	nor did they antagonize glucagon‐ or GLP‐1‐stimulated cAMP‐production at either receptor; also recorded: no shifts in the GLP‐1 7–36 or glucagon concentration–response curves	nor did they antagonize glucagon‐ or GLP‐1‐stimulated cAMP‐production at either receptor; also recorded: no shifts in the GLP‐1 7–36 or glucagon concentration–response curves	–
